Data reported in US9902709B2, “Polysubstituted pyridine compound, preparation method, use and pharmaceutical composition” (PEKING UNIVERSITY FOUNDER GROUP CO., LTD., priority 2014, dated 2018).

How the values were obtained:
[1] = tested on: HL-60 human acute myeloid leukemia cell strain; assay: In vitro anti-proliferation of tumor cells (CCK-8), HL-60; type: cell-based; conditions: HL-60, 72 hours
Protocol: (§1) Experimental Example 2: Determination of the Compounds According to the Present Invention for IC50 of the In Vitro Anti-Proliferation of Tumor Cells
HL-60 human acute myeloid leukemia cell strain (purchased from Shanghai Institute of Cell Biology, Chinese Academy of Sciences);
(§2) Preparation of a compound: the compound was diluted with DMSO to a final concentration of 10 mM.
(§3) a) Cells in logarithmic growth phase were collected, counted, and re-suspended in complete medium. The concentration of cells was adjusted to a suitable concentration (determined depending on the result of optimization experiment of cell density), and the cells were seeded to a 96-well plate at 100 μl cell suspension per well. The cells were incubated in an incubator at 37° C., 100% relative humidity, 5% CO2 for 24 hours.
(§4) b) A test compound was diluted with the culture medium to 500 μM, and then gradient dilution was performed for 8 times. Cells were added at 25 μl/well. The final concentrations of the compound was in a range from 100 μM and 0 μM, 4-fold diluted, including 10 concentrations.
(§5) c) The cells were incubated in an incubator at 37° C., 100% relative humidity, 5% CO2 for 72 hours.
(§6) d) The culture medium was withdraw and discarded, the complete medium containing 10% CCK-8 was added, and then the cells were incubated in an incubator at 37° C. for 2-4 hours.
(§7) IC50 curve was fitted and IC50 value was calculated by professional software GraphPad Prism 5.0.
(§8) In the experiment, the compounds according to the present invention were determined for their IC50 values of in vitro anti-proliferation of tumor cell strains. The final concentrations of the compounds was in a range from 100 μM and 0 μM, 4-fold diluted, including 10 concentrations.

[2] = tested on: MiaPaCa-2 human pancreatic cancer cell strain; assay: In vitro anti-proliferation of tumor cells (CCK-8), MiaPaCa-2; type: cell-based; conditions: MIA PaCa-2, MiaPaCa-2, 72 hours
Protocol: as §1
MiaPaCa-2 human pancreatic cancer cell strain (purchased from American ATCC);
as §2, §3, §4, §5, §6, §7, §8

VEGFR2 = VEGFR2 (Homo sapiens (Human), UniProt P35968); assay: Inhibitory activity of VEGFR2 kinase (HTRF KinEASE-TK kit); type: biochemical
Chain of VEGFR2 (P35968 20-1356): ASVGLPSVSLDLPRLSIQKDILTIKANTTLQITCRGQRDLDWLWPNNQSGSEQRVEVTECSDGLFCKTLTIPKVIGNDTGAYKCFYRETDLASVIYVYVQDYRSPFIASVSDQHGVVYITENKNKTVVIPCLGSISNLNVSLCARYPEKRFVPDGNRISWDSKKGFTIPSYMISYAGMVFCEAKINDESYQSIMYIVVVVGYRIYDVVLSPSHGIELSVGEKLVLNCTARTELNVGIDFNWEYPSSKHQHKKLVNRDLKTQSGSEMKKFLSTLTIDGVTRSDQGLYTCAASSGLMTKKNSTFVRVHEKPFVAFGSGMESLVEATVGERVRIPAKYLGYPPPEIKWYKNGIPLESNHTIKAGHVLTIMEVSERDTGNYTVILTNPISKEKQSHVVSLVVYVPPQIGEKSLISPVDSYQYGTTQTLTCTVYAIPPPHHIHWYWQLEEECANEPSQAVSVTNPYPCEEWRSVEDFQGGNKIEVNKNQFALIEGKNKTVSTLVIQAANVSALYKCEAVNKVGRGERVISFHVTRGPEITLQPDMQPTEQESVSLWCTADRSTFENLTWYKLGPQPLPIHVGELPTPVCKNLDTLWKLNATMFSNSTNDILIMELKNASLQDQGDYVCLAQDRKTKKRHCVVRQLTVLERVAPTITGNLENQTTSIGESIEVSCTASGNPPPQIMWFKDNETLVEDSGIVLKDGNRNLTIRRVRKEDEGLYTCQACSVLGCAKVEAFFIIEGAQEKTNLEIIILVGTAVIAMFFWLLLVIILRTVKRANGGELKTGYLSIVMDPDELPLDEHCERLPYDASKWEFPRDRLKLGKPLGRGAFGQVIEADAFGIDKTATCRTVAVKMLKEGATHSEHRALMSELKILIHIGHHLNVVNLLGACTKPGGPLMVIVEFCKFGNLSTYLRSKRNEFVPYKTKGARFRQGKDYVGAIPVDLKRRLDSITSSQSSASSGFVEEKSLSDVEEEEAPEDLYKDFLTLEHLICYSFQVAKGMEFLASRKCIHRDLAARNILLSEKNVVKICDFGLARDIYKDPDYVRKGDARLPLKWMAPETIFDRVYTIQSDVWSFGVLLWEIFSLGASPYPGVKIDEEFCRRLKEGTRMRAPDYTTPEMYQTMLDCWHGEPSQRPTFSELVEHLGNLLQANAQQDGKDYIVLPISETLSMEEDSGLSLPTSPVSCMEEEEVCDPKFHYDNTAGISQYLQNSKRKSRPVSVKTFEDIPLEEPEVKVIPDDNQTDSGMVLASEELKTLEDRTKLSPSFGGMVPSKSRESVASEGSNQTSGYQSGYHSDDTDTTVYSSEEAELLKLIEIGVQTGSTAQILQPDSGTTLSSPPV
Protocol: HTRF®KinEASE™-TK kit (Cat.62TKOPEC, Cisbio);
VEGFR2 (Cat: k2643, Sigma);
2.1 Preparation of VEGFR2 Kinase Reagent
1× kinase buffer: 1 mL 1× kinase buffer contained 200 μL 5× kinase buffer (Invitrogen), 5 μL, 1M MgCl2, 1 μL 1M DTT, 1 μL 1M MnCl2, and 793 μL ddH2O;
5×TK substrate-biotin and ATP working fluid: as the concentrations of TK substrate-biotin and ATP, please refer to Table 1. TK substrate-biotin and ATP were diluted with 1× kinase buffer to 5 folds of the reaction concentrations;
5× kinase working fluid: as the concentration of VEGFR2 kinase, please refer to Table 1. 5× kinase working fluid was prepared with 1× Kinase buffer;
4× Sa-XL665 working fluid: as the concentration of Sa-XL665 (Cisbio) in the reaction, please refer to Table 1. The 4× Sa-XL665 working fluid was prepared with assay buffer (Cisbio);
4×TK Ab-cryptate working fluid: TK Ab-Cryptate (Cisbio) was 100-fold diluted with assay buffer (Cisbio), as working fluid;
Experimental Procedure of HTRF KinEASE TK Kit
After all the reagents were prepared as described above, the reagents except for enzymes were equilibrated to room temperature, then adding samples were performed.
TK substrate-biotin, ATP, VEGFR2 kinase and a compound at a certain concentration were reacted in 1× kinase buffer at room temperature for 20 minutes. […] To all the reaction wells, 5 μl 4× Sa-XL665 working fluid and 5 μl 4×TK Ab-cryptate working fluid were added. After reacting at room temperature for 1 hours, fluorescence signal (excited at 320 nm, emitted at 665 nm, 615 nm) was detected by ENVISION detector (Perkinelmer). Based on the full-active well and the background signal well, the inhibition rate for each well was calculated, and the average value was used for duplicate wells. The half maximal inhibitory concentration (IC50) for each test compound was fitted by professional software Graphpad PRISM 5.0.
2.3 Data Analysis Emission light ratio (ER)=665 nm emission signal/615 nm emission signal Inhibition rate=(ERpositive−ERsample)/(ERpositive−ERnegative)*100%
HTRF KinEASE TK kit was used to determine the IC50 value of a compound for kinase VEGFR2. The final concentration of the compound started from 100 μM, and 4-fold gradient dilution was carried out to provide 10 concentrations. Duplicate wells were used for each concentration. The final concentration of DMSO was controlled to 1% in the reaction system.

[3] = tested on: 786-O human renal clear cell carcinoma cell strain; assay: In vitro anti-proliferation of tumor cells (CCK-8), 786-O; type: cell-based; conditions: 786-0, 72 hours
Protocol: as §1
786-O human renal clear cell carcinoma cell strain (purchased from Shanghai Institute of Cell Biology, Chinese Academy of Sciences);
as §2, §3, §4, §5, §6, §7, §8

Pharmacokinetics in mice = type: in vivo; conditions: female, plasma, CD-1 mouse
Protocol: Administration route: intravenous injection (IV); per os (PO).
Fasting condition: free access to water, no fasting.
The mice were weighed before administration, and the administration volume was calculated based on their body weights (IV group: 4 mL/kg; PO group: 10 mL/kg).
Administration route and dose: Intravenous (IV) group: 1 mg/kg; Oral (PO) group: 5 mg/kg.
Animal grouping: 3 mice/group, an IV group and a PO group for each test compound.
After administration, 30 μL whole blood was collected from rim of the eyes of mice in the IV group at each pre-determined time point (5 min, 15 min, 30 min, 1 h, 2 h, 4 h, 8 h, 24 h), and 30 μL whole blood was collected from rim of the eyes of mice in the PO group at each pre-determined time point (15 min, 30 min, 1 h, 2 h, 4 h, 8 h, 24 h). The whole blood was centrifuged (6,000 rpm, 5 min) to get blood plasma. All the blood plasma samples were stored in a refrigerator of −80° C. for further analysis.
Conditions of LC/MS/MS was as follows:
Pharmacokinetic parameters were estimated according to non-compartment model (calculated by WinNonlin software): […]
IV paramater: t1/2 (hr); C0 (ng/mL); AUClast (hr*ng/mL); AUCInf (hr*ng/mL); AUC Extr (%); Vz (L/kg); Vss (L/kg); CL (mL/min/kg); MRT (hr).
PO parameter: t1/2 (hr); tmax (hr); Cmax (ng/mL); AUClast (hr*ng/mL); AUCInf (hr*ng/mL); AUC Extr (%); MRT (hr); AUC/D (hr*mg/mL); F (%).

[4] = tested on: MDA-MB-231 human mammary cancer cell strain; assay: In vitro anti-proliferation of tumor cells (CCK-8), MDA-MB-231; type: cell-based
Protocol: as §1
MDA-MB-231 human mammary cancer cell strain (purchased from Shanghai Institute of Cell Biology, Chinese Academy of Sciences);
as §2, §3, §4, §5, §6, §7, §8

[5] = tested on: A498 human renal carcinoma cell strain; assay: In vitro anti-proliferation of tumor cells (CCK-8), A498; type: cell-based; conditions: A498, 72 hours
Protocol: as §1
A498 human renal carcinoma cell strain (purchased from Shanghai Institute of Cell Biology, Chinese Academy of Sciences);
as §2, §3, §4, §5, §6, §7, §8

[6] = tested on: SK-OV-3 human ovarian cancer cell strain; assay: In vitro anti-proliferation of tumor cells (CCK-8), SK-OV-3; type: cell-based; conditions: SK-OV-3, 72 hours
Protocol: as §1
SK-OV-3 human ovarian cancer cell strain (purchased from Shanghai Institute of Cell Biology, Chinese Academy of Sciences);
as §2, §3, §4, §5, §6, §7, §8

[7] = tested on: HCT116 human colon cancer cell strain; assay: In vitro anti-proliferation of tumor cells (CCK-8), HCT-116; type: cell-based; conditions: HCT-116, 72 hours
Protocol: as §1
HCT116 human colon cancer cell strain (purchased from Shanghai Institute of Cell Biology, Chinese Academy of Sciences);
as §2, §3, §4, §5, §6, §7, §8

[8] = tested on: HepG2 human liver cancer cell strain; assay: In vitro anti-proliferation of tumor cells (CCK-8), HepG2; type: cell-based; conditions: HepG2, 72 hours
Protocol: as §1
HepG2 human liver cancer cell strain (purchased from Shanghai Institute of Cell Biology, Chinese Academy of Sciences);
as §2, §3, §4, §5, §6, §7, §8

[9] = tested on: NCI-H460 Human large cell lung cancer cell strain; assay: In vitro anti-proliferation of tumor cells (CCK-8), NCI-H460; type: cell-based; conditions: NCI-H460, 72 hours
Protocol: as §1
NCI-H460 Human large cell lung cancer cell strain (purchased from Shanghai Institute of Cell Biology, Chinese Academy of Sciences);
as §2, §3, §4, §5, §6, §7, §8

Cn1cc(-c2nccc(Oc3ccc(NC(=O)Nc4ccc(Cl)c(C(F)(F)F)c4)cc3)c2F)cn1 [Example 1, 1-(4-chloro-3-(trifluoromethyl)phenyl)-3-(4-(3-fluoro-2-(1-methyl-4-pyrazolyl)-pyridin-4-yl-oxy)phenyl)urea]
IC50 [1]: 17.1 µM | IC50 [2]: 2.04 µM | IC50 (VEGFR2; ATP 5 μM, 20 minutes, room temperature): 0.0286 µM | inhibitory activity as fold of that of Comparative compound 2 (VEGFR2; VEGFR2 kinase): 6.6 fold | inhibitory activity as fold of that of Sorafenib (VEGFR2; VEGFR2 kinase): 3.13 fold | IC50 value as fold of that of Comparative compound 2 (VEGFR2; VEGFR2 kinase, ratio of IC50): 0.15 fold | IC50 value as fold of that of Sorafenib (free base) (VEGFR2; VEGFR2 kinase, ratio of IC50): 0.32 fold | IC50 [3]: 2.43 µM | bioavailability (Pharmacokinetics in mice; PO 5 mg/kg vs IV 1 mg/kg, read-out: F (oral bioavailability)): 90.3% | AUC(0-t) (Pharmacokinetics in mice; PO 5 mg/kg, average of three mice, read-out: AUClast (area under the curve)): 39600 ng·h/mL | Cmax (Pharmacokinetics in mice; PO 5 mg/kg, average of three mice, read-out: Cmax (peak concentration)): 1910 ng/mL | IC50 ([4]; Homo sapiens, MDA-MB-231, 72 hours, CCK-8): 2.82 µM | IC50 as fold of that of Sorafenib ([4]; MDA-MB-231 cell line): 0.28 fold | IC50 [5]: 4.95 µM | IC50 [6]: 7.14 µM | IC50 [7]: 2.77 µM | IC50 [8]: 0.721 µM | IC50 [9]: 0.939 µM
